Experimental data from PMC6680430, “Quantitative Prediction of Human Pharmacokinetics and Pharmacodynamics of CKD519, a Potent Inhibitor of Cholesteryl Ester Transfer Protein (CETP)” (Pharmaceutics, 2019).
≈ marks a conversion by molar mass, not a printed value.

Assays:
[1] = animal full PK study in monkeys (NCA and PK model); assay type: in vivo, Cynomolgus monkey; settings: monkey; for Tmax: median (range)
Procedure: Animal PK data for analysis were collected from preclinical studies performed at ChongKunDang laboratory. All animal experiments were performed with relevant guidelines and regulations, and the protocol was approved by the Institutional Animal Care and Use Committee (IACUC) of ChongKunDang (Approval number: S-13-015). A single dose of CKD519 was administered either orally or via intravenous infusion to hamsters (intravenous dose of 0.5 mg/kg, oral dose of 3, 15, or 45 mg/kg, n = 30); rats (intravenous dose of 0.5 mg/kg, oral dose of 5, 15, or 45 mg/kg, n = 20); and monkeys (intravenous dose of 0.1 mg/kg, oral dose of 1, 5, or 30 mg/kg, n = 16). The identical solution was administered to all animal species in the fasted state. Plasma CKD519 concentration was measured before and at 0.083, 0.25, 0.5, 1, 2, 4, 8, and 24 h after administration in hamsters and rats, and before and at 0.083, 0.25, 0.5, 1, 2, 4, 6, 8, 12, 24, 48, and 72 h after administration in monkeys. Two hamsters given identical doses were sampled in a rotating manner.
The plasma samples were stored at −70 °C before the analysis and were thawed at room temperature. […] A sensitive, specific, and validated liquid chromatography coupled with a tandem mass spectrometer (HPLC-MS/MS) assay was used for the determination of CKD519 concentration in animal plasma samples. A structural analogue of CKD519 was used as the internal standard. The validated working range was from 2 ng/mL (the lower limit of quantification, LLOQ) to 20,000 ng/mL. Quality control (QC) samples were analyzed together with the study samples. Intra-day and inter-day precision and accuracy results were within the acceptance criteria based on the Ministry of Food and Drug Safety (MFDS) guidelines. An exploratory data analysis was performed through non-compartmental analysis (NCA) using the NonCompart package (developed by Bae, version 0.4.4) in R (version 3.5.1, The R Foundation, Vienna, Austria).
Using the PK data from each species, nonlinear mixed-effect modeling was conducted using NONMEM (version 7.4, Icon Development Solutions, Ellicott City, MD, USA) reflecting the clues from NCA. The first-order conditional estimation method with interaction (FOCE-I) was used whenever applicable. The adequacy of the model was checked using changes in the objective function value (OFV), visual inspection of various diagnostic plots (goodness-of-fit (GOF) plot), and methods of visual predictive check (VPC) and bootstrap were used for the diagnostics on the model stability and parameter reliability. The significance of model improvement was evaluated using a likelihood-ratio test (LRT). In the nested models, the result was considered statistically significant if the OFV decreased more than 3.84 (p-value < 0.05, degree of freedom (df) = 1) and 5.99 (p-value < 0.05, df = 2). The degree of freedom is defined as the gap of the numbers of parameters of the two subsequent models that are being compared. In the case of non-nested models, the Akaike information criteria (AIC) value was used to select the model that best described the data. R (version 3.5.1., R Foundation for Statistical Computing, Vienna, Austria) was used for data preparation, NCA, graphical analysis, model diagnostics, and statistical summaries.
Initially, a two-compartment model with first-order absorption was developed to describe the biphasic curve, and several absorption structures (e.g., zero-order with absorption lag time, Weibull-type absorption) were applied to the base model if needed. The change in absolute bioavailability (F) by dose levels was also considered. […]

[2] = tested on: CETP; experiment: human PK/PD modeling and simulation of CETP inhibition
Procedure: The efficacious dose was defined as the dose accomplishing the threshold in ≥50% of the population, which was determined using the median. Thus, the variability of the parameters was not incorporated in the simulation.

[3] = absolute bioavailability from first-in-human study (observed oral AUC vs predicted intravenous AUC); assay type: in vivo; settings: AUC ratio observed oral / predicted intravenous
From the text: The absolute bioavailability was estimated for each dose (Table 7) by comparing the AUC of the observed oral PK profile in the first-in-human study and that of the predicted human i.v. PK profile from animal PK data. […] Even though the trends were similar, absolute bioavailability estimated by the observed PK profile was less than one-fifth of the predicted bioavailability using the animal PK data. […] Delayed absorption was also found, and the difference in formulation between animals and humans was considered to have caused the delay by affecting the absorption rate. Simulated AUC, Cmax, and Tmax were within 2-folds, the range that is generally accepted for animal-to-human predictions.

[4] = target: T1, cholesteryl ester transfer protein (CETP) (Homo sapiens, UniProt P11597); experiment: in vitro potency, CETP inhibition (in-house data); settings: read-out: IC50 (in vitro potency)
T1 sequence (P11597 18-493): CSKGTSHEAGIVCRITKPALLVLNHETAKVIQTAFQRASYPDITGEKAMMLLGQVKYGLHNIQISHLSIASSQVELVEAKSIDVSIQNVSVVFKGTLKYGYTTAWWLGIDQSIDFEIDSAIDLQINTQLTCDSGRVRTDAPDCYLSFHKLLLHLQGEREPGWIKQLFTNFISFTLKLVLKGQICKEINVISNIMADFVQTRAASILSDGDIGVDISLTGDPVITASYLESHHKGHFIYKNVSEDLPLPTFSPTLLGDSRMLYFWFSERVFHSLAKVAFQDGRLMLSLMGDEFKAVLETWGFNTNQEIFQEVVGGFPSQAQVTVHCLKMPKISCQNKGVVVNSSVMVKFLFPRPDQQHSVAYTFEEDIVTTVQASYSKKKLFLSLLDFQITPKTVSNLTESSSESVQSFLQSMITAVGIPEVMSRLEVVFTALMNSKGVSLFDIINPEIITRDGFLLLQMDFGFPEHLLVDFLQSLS

[5] = PK model, final estimate (%RSE)
[6] = intravenous 0.1 mg/kg, NCA, mean ± SD
[7] = two-compartment PK model, final estimate (%RSE)

α (scale parameter of Weibull absorption) [1, 5]: 5.44 (11.8%)
β (shape parameter of Weibull absorption) [1, 5]: 3.54 (6.50%)
AUClast [1, 6]: 5150 ± 1530 ng·h/mL
V/F * (V for intravenous) [1, 6]: 3500 ± 1380 mL
ke [1, 6]: 0.0105 ± 0.00836 h⁻¹
t1/2 [1, 6]: 104 ± 80.0 h
Tmax ([1]; intravenous 0.1 mg/kg, NCA): 0.1665 (0.083–0.25) h
AUClast ([1]; oral 1 mg/kg, NCA, mean ± SD): 8940 ± 954 ng·h/mL
CL/F ([1]; oral 1 mg/kg, NCA, mean ± SD): 230 ± 64.6 mL/h
Cmax ([1]; oral 1 mg/kg, NCA, mean ± SD): 752 ± 148 ng/mL
V/F ([1]; oral 1 mg/kg, NCA, mean ± SD): 17600 ± 4000 mL
ke ([1]; oral 1 mg/kg, NCA, mean ± SD): 0.0140 ± 0.0057 h⁻¹
t1/2 ([1]; oral 1 mg/kg, NCA, mean ± SD): 59.9 ± 35.5 h
Tmax ([1]; oral 1 mg/kg, NCA): 5.5 (5–6) h
AUClast ([1]; oral 5 mg/kg, NCA, mean ± SD): 29500 ± 4840 ng·h/mL
CL/F ([1]; oral 5 mg/kg, NCA, mean ± SD): 309 ± 77.3 mL/h
Cmax ([1]; oral 5 mg/kg, NCA, mean ± SD): 4700 ± 1100 ng/mL
V/F ([1]; oral 5 mg/kg, NCA, mean ± SD): 50500 ± 16900 mL
ke ([1]; oral 5 mg/kg, NCA, mean ± SD): 0.00707 ± 0.00412 h⁻¹
t1/2 ([1]; oral 5 mg/kg, NCA, mean ± SD): 125 ± 64.6 h
Tmax ([1]; oral 5 mg/kg, NCA): 7 (6–8) h
AUClast ([1]; oral 30 mg/kg, NCA, mean ± SD): 79100 ± 15600 ng·h/mL
CL/F ([1]; oral 30 mg/kg, NCA, mean ± SD): 999 ± 123 mL/h
Cmax ([1]; oral 30 mg/kg, NCA, mean ± SD): 10200 ± 2390 ng/mL
V/F ([1]; oral 30 mg/kg, NCA, mean ± SD): 67800 ± 44900 mL
ke ([1]; oral 30 mg/kg, NCA, mean ± SD): 0.0194 ± 0.0104 h⁻¹
t1/2 ([1]; oral 30 mg/kg, NCA, mean ± SD): 46.3 ± 26.8 h
Tmax ([1]; oral 30 mg/kg, NCA): 8 (8–8) h
CL [1, 7]: 0.0344 (24.0%) L/h
Q [1, 7]: 0.0895 (49.9%) L/h
Vc [1, 7]: 0.383 (74.7%) L
Vp [1, 7]: 3.40 (51.5%) L
IC50 ([2]; comparator in vivo IC50 22 nM scaled by in vitro potency ratio, read-out: assumed in vivo IC50): 37 nM
IC50 reflected in the PD model ([2]; corresponds to 22 nM (reported PD parameter of comparator scenario)): 0.01322 µg/mL (≈ 0.022 µM)
IC50 reflected in the PD model ([2]; corresponds to 37 nM (in vitro potency ratio scenario)): 0.02224 µg/mL
Absolute Bioavailability ([3]; oral dose 25 mg): 0.0362
Absolute Bioavailability ([3]; oral dose 50 mg): 0.0321
Absolute Bioavailability ([3]; oral dose 100 mg): 0.0191
Absolute Bioavailability ([3]; oral dose 200 mg): 0.0140
Absolute Bioavailability ([3]; oral dose 400 mg): 0.00814
IC50 [4]: 2.3 nM
Structure (SMILES): COc1cc(F)c(C(C)C)cc1C1=C(CN2C(=O)O[C@H](c3cc(C(F)(F)F)cc(C(F)(F)F)c3)[C@@H]2C)CC(C)(C)CC1 [CKD519]
